For data set [1], the system named is BERK low gamma. The experiment in a line: Systemic vaso-occlusion and systemic flow in low gamma BERK. In kind it is in vivo, mouse. An excerpt:
(§1) Just as with supra-perfusion therapy, a sickle therapy induced toxicity is apparent in the quercetin-based antioxidant therapy of sickle cell disease. […] However, this nearly complete clearance of the vaso-occlusion appears to induces a toxicity to such treated low gamma BERK, as the animal die after six to eight hrs. after infusing quercetin. Accordingly, it was concluded that antisickling, or antioxidant or antiadhesive therapies, need to be combined with anti-anemia therapy to protect the brain tissues from hypoxic effects as the systemic perfusion is improved as vasoconstrictive effects are reduced.
(§2) A lower dosage of the therapeutic that only marginally reduces the severity of the disease as reflected by systemic vaso-occlusion can still moderate the severity of the disease to some degree without creating an oxygen debt in the brain (i.e. the pathology of the disease as reflected by CBF and BOLD, in an organ specific manner).

Data set [2] concerns BERK low gamma. To be noted: mouse, in vivo, ip.
Source text: as §1, §2

The test system of data set [3] is BERK mice. The data set can be described thus: BOLD-RHO (BOLD MRI response to hyperoxia, gray matter). In kind it is in vivo, mouse. On the procedure: BL=baseline, PI=post injection. […] Using BOLD MRI imaging (which is sensitive to the tissue concentration of deoxy-Hb) the sufficiency of oxygenation of cerebral tissues was measured by assessing the change in deoxy-Hb which occurs with administration of a short inhalation bolus of 100% O2.

The subject of data set [4] is BERK mice. The experiment in a line: Cerebral blood flow (CBF) after treatment. Type of data set: in vivo, mouse.
The subject of data set [5] is BERK mice. The data set can be described thus: Intravital microscopy of the systemic circulation (shear rate, volumetric flow rate, leukocyte adhesion, sickling). Type of data set: in vivo, mouse.
A short description of data set [6]: Plasma level after 10% top load infusion. In kind it is in vivo, mouse. To be noted: low gamma BERK mice, infusion of 6 gm % solution at 10% top load. An excerpt: Infusion of a 6 gm % solution EAF P3K6 Hb to a low gamma BERK mice at 10% top load results in a presence of 0.3 gm/dl EAF P3K6 Hb in the plasma, the HbS in the RBC being 8 gm/dl.
Setting [7] is: low gamma BERK, single dose 20 mg/kg intraperitoneally, three hrs. after infusion.
[8] abbreviates: BERK low gamma, 50 mg/kg intraperitoneal three times a week.
[9] abbreviates: low gamma BERK, daily oral dosing 100/mg per/kg for 10 days.
Where [10] appears, read: BERK mice, post injection vs baseline, 10% top-load.

Four compounds from patent US11065277B2, “Method of ameliorating side effects of sickle cell disease treatments” (ALBERT EINSTEIN COLLEGE OF MEDICINE, priority 2015, dated 2021) can be followed below.

Entries after “also recorded” stand apart in the source; their conditions may differ.

Take `NC(=O)NO` [hydroxy urea, reference compound]: in data set [1] (setting [7]), the “expression of fetal Hb” value is given as “without any expression”, the systemic flow result is “significant improvement” and the vaso-occlusion result was “level close to that of medium gamma BERK”.

Regarding `O=c1c2cc(O)c(O)cc2oc2cc(O)c([C@@H]3O[C@H](CO)[C@@H](O)[C@H](O)[C@H]3O)c(O)c12` [mangiferine, reference compound], the “therapeutic efficacy for SCD (vaso-occlusion)” value in data set [1] (BERK low gamma) is reported as “not seen”.

For `O=c1c(O)c(-c2ccc(O)c(O)c2)oc2cc(O)cc(O)c12` [quercetin, 2-(3,4-dihydroxyphenyl)-3,5,7-trihydroxy-4H-chromen-4-one], the “therapeutic efficacy for SCD (vaso-occlusion)” value in data set [1] (BERK low gamma) is given as “dose dependent”. Besides, the vaso-occlusion result in data set [1] (setting [8]) is listed as “small attenuation”; in data set [1] (BERK low gamma, 200 mg/kg intraperitoneal, measured 3 hrs after infusion), “nearly completely attenuated”. For the same compound, the “improvement of systemic circulation” value in data set [1] (setting [9]) was 60 to 70%. For the same compound, in data set [2] (50 mg/kg), the toxicity to animals result is “not toxic”. Also, in data set [2] (200 mg/kg), the “time of death after infusing” value was “six to eight”. Moreover, the “influence on BOLD” value in data set [3] (setting [9]) is on record as “without any significant influence”. The “influence on CBF” value is “very little influence” in data set [4] (setting [8]) and “without any significant influence” in data set [4] (setting [9]).

“EAF-PEG-Hb: extension arm facilitated hemoglobin molecule having 6 molecules of 3,000 mw polyethylene glycol (PEG) attached thereto”: the “Volumetric flow rate / systemic (peripheral) tissue blood flow” value in data set [5] (BERK / sickle transgenic mice, after 10% topload) is recorded as “still increased”. For the same compound, the “Leukocyte adhesion in systemic post capillary venules” value in data set [5] (sickle transgenic animals, systemic circulation) was “still reduced”. For the same compound, the “presence in the plasma” value in data set [6] is listed as 0.3 gm/dl. Further, the “BOLD-RHO (hypoxic stress, brain deoxy-Hb response to hyperoxia)” value in data set [3] (setting [10]) is “No drop in brain deoxy-Hb was detected; also recorded: protected against the decrease in CBF”. Moreover, the CBF entry in data set [4] (setting [10]) is recorded as “drop in CBF; also recorded: decreased”; in data set [4] (low gamma BERK mice, 6 gm % solution at 10% top load), “normalize the CBF”.
